Results taken from BigSolDB 2.1.

O=C(/C=C/c1ccc(O)c(O)c1)O[C@H](Cc1ccc(O)c(O)c1)C(=O)O
solubility (mole fraction)
Settings	293.15 K	298.15 K	303.15 K	308.15 K	313.15 K
in ethyl acetate	0.0345	0.0466	0.0506	0.0588	0.0722
in methyl acetate	0.0363	0.049	0.0533	0.0619	0.0764
